Each compound was assayed on NL-RLuc virus (assay: Inhibition of HIV replication (NL-RLuc virus, luciferase readout in MT-2 cells)). Details: Human immunodeficiency virus 1, MT2, 120 h, MT-2 cells infected with NL-RLuc virus, 5 days of incubation, 10% FBS, at least 2 experiments.
Format: cell-based
Summary of the method: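 MT-2 cells infected with NL4-3-derived virus carrying Renilla luciferase in place of part of nef, grown 5 days with serial compound dilutions in RPMI 1640/10% FBS. Virus growth read as luciferase expression. EC50 from median effect equation, at least 2 experiments.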

CCCCCOc1ccc(-c2cnc(C)c([C@H](OC(C)(C)C)C(=O)O)c2N2CCC(C)(C)CC2)nc1 [Example 317, (2S)-2-(tert-butoxy)-2-[4′-(4,4-dimethylpiperidin-1-yl)-6′-methyl-5-(pentyloxy)-[2,3′-bipyridine]-5′-yl]acetic acid] and Cc1ncc(-c2ccc(OCC(C)C)cn2)c(N2CCC(C)(C)CC2)c1[C@H](OC(C)(C)C)C(=O)O [Example 312, (2S)-2-(tert-butoxy)-2-[4′-(4,4-dimethylpiperidin-1-yl)-6′-methyl-5-(2-methylpropoxy)-[2,3′-bipyridine]-5′-yl]acetic acid] are the same in EC50: 1 nM for the first, 1 nM for the second.

First: CCCCNc1ccc(-c2cnc(C)c([C@H](OC(C)(C)C)C(=O)O)c2N2CCC(C)(C)CC2)cn1 [Example 437, (S)-2-tert-Butoxy-2-(6′-(butylamino)-4-(4,4-dimethylpiperidin-1-yl)-6-methyl-3, 3′-bipyridin-5-yl)acetic acid]
Second: COc1ccccc1-c1cnc(C)c([C@H](OC(C)(C)C)C(=O)O)c1N1CCC(C)(C)CC1 [Example 167, (2S)-2-(tert-Butoxy)-2-[4-(4,4-dimethylpiperidin-1-yl)-5-(2-methoxyphenyl)-2-methylpyridin-3-yl]acetic acid]
The EC50 of the first is 1.8-fold higher: 9 nM for the first, 5 nM for the second. The second is the more potent here.

Going from Cc1ncc(-c2cnc(OCCc3ccccc3F)c(Cl)c2)c(N2CCC(C)(C)CC2)c1[C@H](OC(C)(C)C)C(=O)O [Example 252, (S)-2-(tert-Butoxy)-2-(5′-chloro-4-(4,4-dimethylpiperidin-1-yl)-6′-(2-fluorophenethoxy)-6-methyl-[3, 3′-bipyridin]-5-yl)acetic acid] to Cc1ncc(-c2cnc(O[C@@H](C)Cc3ccccc3)c(F)c2)c(N2CCC(C)(C)CC2)c1[C@H](OC(C)(C)C)C(=O)O [Example 379, (2S)-2-(tert-butoxy)-2-[4-(4,4-dimethylpiperidin-1-yl)-5′-fluoro-6-methyl-6′-{[(2S)-1-phenylpropan-2-yl]oxy}-[3,3′-bipyridine]-5-yl]acetic acid], the EC50 rises from 1 nM to 2 nM (2-fold).

First: COc1ccc(CCOc2ccc(-c3cnc(C)c([C@H](OC(C)(C)C)C(=O)O)c3N3CCC(C)(C)CC3)nc2)c(C)c1 [Example 292, (2S)-2-(tert-butoxy)-2-[4′-(4,4-dimethylpiperidin-1-yl)-5-[2-(4-methoxy-2-methylphenyl)ethoxy]-6′-methyl-[2,3′-bipyridine]-5′-yl]acetic acid]
Second: Cc1ccc(CCOc2ccc(-c3cnc(C)c([C@H](OC(C)(C)C)C(=O)O)c3N3CCC(C)(C)CC3)nc2)cc1Cl [Example 331, (2S)-2-(tert-butoxy)-2-{5-[2-(3-chloro-4-methylphenyl)ethoxy]-4′-(4,4-dimethylpiperidin-1-yl)-6′-methyl-[2,3′-bipyridine]-5′-yl}acetic acid]
The EC50 of the first is 4-fold higher: 2 nM for the first, 0.5 nM for the second.

Cc1nc(NCCCN2CCN(C)CC2)c(-c2ccc(OCCc3ccc(F)cc3)cc2)c(N2CCC(C)(C)CC2)c1[C@H](OC(C)(C)C)C(=O)O [Example 52, (S)-2-(tert-Butoxy)-2-(4-(4,4-dimethylpiperidin-1-yl)-5-(4-(4-fluorophenethoxy)phenyl)-2-methyl-6-((3-(4-methylpiperazin-1-yl)propyl)amino)pyridin-3-yl)acetic acid] and Cc1nc(NCCCN2CCOCC2)c(-c2ccc(OCCc3ccc(F)cc3)cc2)c(N2CCC(C)(C)CC2)c1[C@H](OC(C)(C)C)C(=O)O [Example 34, (S)-2-(tert-Butoxy)-2-(4-(4,4-dimethylpiperidin-1-yl)-5-(4-(4-fluorophenethoxy)phenyl)-2-methyl-6-((3-morpholinopropyl)amino)pyridin-3-yl)acetic acid] are within 1.5-fold of each other in EC50: 1 nM for the first, 0.7 nM for the second.

Compared with Cc1cccc(CCOc2ccc(-c3cnc(C)c([C@H](OC(C)(C)C)C(=O)O)c3N3CCC(C)(C)CC3)cc2)c1 [Example 365, (2S)-2-(tert-butoxy)-2-[4-(4,4-dimethylpiperidin-1-yl)-2-methyl-5-{4-[2-(3-methylphenyl)ethoxy]phenyl}pyridin-3-yl]acetic acid], CC1(C)CCN(c2c(-c3ccc(OCCc4ccc(F)cc4)cc3)cnc(CO)c2[C@H](OC(C)(C)C)C(=O)O)CC1 [Example 8, (S)-2-(tert-Butoxy)-2-(4-(4,4-dimethylpiperidin-1-yl)-5-(4-(4-fluorophenethoxy)phenyl)-2-(hydroxymethyl)pyridin-3-yl)acetic acid] is 1.5-fold higher in EC50: 2 nM for the first, 3 nM for the second.

First: Cc1nc(-c2cn(C)cn2)c(-c2ccc(OCCc3ccc(F)cc3)cc2)c(N2CCC(C)(C)CC2)c1[C@H](OC(C)(C)C)C(=O)O [Example 57, (S)-2-(tert-Butoxy)-2-(4-(4,4-dimethylpiperidin-1-yl)-5-(4-(4-fluorophenethoxy)phenyl)-2-methyl-6-(1-methyl-1H-imidazol-4-yl)pyridin-3-yl)acetic acid]
Second: Cc1cn(-c2nc(C)c([C@H](OC(C)(C)C)C(=O)O)c(N3CCC(C)(C)CC3)c2-c2ccc(OCCc3ccc(F)cc3)cc2)cn1 (single isomer, unassigned) [Example 56]
The EC50 of the first is 6.5-fold higher: 13 nM for the first, 2 nM for the second.

First: Cc1ncc(-c2ccc(OCCc3ccc(F)cc3)nc2)c(N2CCC(C)(C)CC2)c1[C@H](OC(C)(C)C)C(=O)O [Example 254, (S)-2-(tert-Butoxy)-2-(4-(4,4-dimethylpiperidin-1-yl)-6′-(4-fluorophenethoxy)-6-methyl-[3,3′-bipyridin]-5-yl)acetic acid]
Second: Cc1nc(-c2cnc(C)c([C@H](OC(C)(C)C)C(=O)O)c2N2CCC(C)(C)CC2)ncc1OCCc1ccc(F)cc1 [Example 245, (S)-2-(tert-Butoxy)-2-(4-(4,4-dimethylpiperidin-1-yl)-5-(5-(4-fluorophenethoxy)-4-methylpyrimidin-2-yl)-2-methylpyridin-3-yl)acetic acid]
The EC50 of the first is 3.3-fold lower: 0.6 nM for the first, 2 nM for the second. The first is the more potent here.

Compared with Cc1cccc(Nc2nc(C)c([C@H](OC(C)(C)C)C(=O)O)c(N3CCC(C)(C)CC3)c2-c2ccc(OCCc3ccc(F)cc3)cc2)n1 [Example 80, (S)-2-(tert-Butoxy)-2-(4-(4,4-dimethylpiperidin-1-yl)-5-(4-(4-fluorophenethoxy)phenyl)-2-methyl-6-((6-methylpyridin-2-yl)amino)pyridin-3-yl)acetic acid], Cc1nc(Nc2ccncc2)c(-c2ccc(OCCc3ccc(F)cc3)cc2)c(N2CCC(C)(C)CC2)c1[C@H](OC(C)(C)C)C(=O)O [Example 77, (S)-2-(tert-Butoxy)-2-(4-(4,4-dimethylpiperidin-1-yl)-5-(4-(4-fluorophenethoxy)phenyl)-2-methyl-6-(pyridin-4-ylamino)pyridin-3-yl)acetic acid] is 3.3-fold lower in EC50: 2 nM for the first, 0.6 nM for the second.

Compared with Cc1nc(NC2CCN(C)CC2)c(-c2ccc(OCCc3ccc(F)cc3)cc2)c(N2CCC(C)(C)CC2)c1[C@H](OC(C)(C)C)C(=O)O [Example 25, (S)-2-(tert-Butoxy)-2-(4-(4,4-dimethylpiperidin-1-yl)-5-(4-(4-fluorophenethoxy)phenyl)-2-methyl-6-((1-methylpiperidin-4-yl)amino)pyridin-3-yl)acetic acid], CC1(C)CCN(c2c(-c3ccc(OCCc4ccc(F)cc4)cc3)c(N)nc(Cl)c2[C@H](OC(C)(C)C)C(=O)O)CC1 [Example 206, (S)-2-(6-Amino-2-chloro-4-(4,4-dimethylpiperidin-1-yl)-5-(4-(4-fluorophenethoxy)phenyl)pyridin-3-yl)-2-(tert-butoxy)acetic acid] is 2.5-fold higher in EC50: 0.8 nM for the first, 2 nM for the second.

Compared with COc1c(F)cc(-c2c(CO)nc(Cl)c([C@H](OC(C)(C)C)C(=O)O)c2N2CCC(C)(C)CC2)cc1F [Example 205, (S)-2-(tert-Butoxy)-2-(2-chloro-5-(3,5-difluoro-4-methoxyphenyl)-4-(4,4-dimethylpiperidin-1-yl)-6-(hydroxymethyl)pyridin-3-yl)acetic acid], COc1c(F)cc(-c2c(CN3CCC4(CCC4)CC3)nc(C)c([C@H](OC(C)(C)C)C(=O)O)c2N2CCC(C)(C)CC2)cc1F [Example 194, (2S)-2-[6-({7-Azaspiro[3.5]nonan-7-yl}methyl)-5-(3,5-difluoro-4-methoxyphenyl)-4-(4,4-dimethylpiperidin-1-yl)-2-methylpyridin-3-yl]-2-(tert-butoxy)acetic acid] is 10-fold lower in EC50: 6 nM for the first, 0.6 nM for the second. The second is the more potent here.

Compared with Cc1ncc(-c2ccc(CNc3ncnc4c3oc3ccccc34)c(F)c2)c(N2CCC(C)(C)CC2)c1[C@H](OC(C)(C)C)C(=O)O [Example 218, (S)-2-(5-(4-((Benzofuro[3,2-d]pyrimidin-4-ylamino)methyl)-3-fluorophenyl)-4-(4,4-dimethylpiperidin-1-yl)-2-methylpyridin-3-yl)-2-(tert-butoxy)acetic acid], Cc1ncc(-c2cnc(O[C@H](C)Cc3ccccc3)c(F)c2)c(N2CCC(C)(C)CC2)c1[C@H](OC(C)(C)C)C(=O)O [Example 380, (2S)-2-(tert-butoxy)-2-[4-(4,4-dimethylpiperidin-1-yl)-5′-fluoro-6-methyl-6′-{[(2R)-1-phenylpropan-2-yl]oxy}-[3,3′-bipyridine]-5-yl]acetic acid] is 10-fold higher in EC50: 0.2 nM for the first, 2 nM for the second.

Going from Cc1ncc(-c2cc(F)cc(F)c2F)c(N2CCC(C)(C)CC2)c1[C@H](OC(C)(C)C)C(=O)O [Example 174, (2S)-2-(tert-Butoxy)-2-[4-(4,4-dimethylpiperidin-1-yl)-2-methyl-5-(2,3,5-trifluorophenyl)pyridin-3-yl]acetic acid] to Cc1cccc(Cl)c1CCOc1ccc(-c2cnc(C)c([C@H](OC(C)(C)C)C(=O)O)c2N2CCC(C)(C)CC2)cn1 [Example 412, (S)-2-(tert-Butoxy)-2-(6′-(2-chloro-6-methylphenethoxy)-4-(4,4-dimethylpiperidin-1-yl)-6-methyl-[3, 3′-bipyridin]-5-yl)acetic acid], the EC50 falls from 11 nM to 4 nM (2.8-fold).

Work on Cc1nc(CNC(=O)OC(C)(C)C)c(-c2ccc(OCCc3ccc(F)cc3)cc2)c(N2CCC(C)(C)CC2)c1[C@H](OC(C)(C)C)C(=O)O [Example 23, (S)-2-(tert-Butoxy)-2-(6-(((tert-butoxycarbonyl)amino)methyl)-4-(4,4-dimethylpiperidin-1-yl)-5-(4-(4-fluorophenethoxy)phenyl)-2-methylpyridin-3-yl)acetic acid] yielded an EC50 of 2 nM.
